# Where two headings read alike, the source gives them in different places. Where no end group is shown, it is not given here. rhodamine = not defined here
# T1: GST-CARα ligand binding domain fusion protein (Homo sapiens, UniProt Q14994)
# T1 construct: made in house; host or cells: E. coli
# T1 sequence (Q14994 76-348 isoform Q14994-2): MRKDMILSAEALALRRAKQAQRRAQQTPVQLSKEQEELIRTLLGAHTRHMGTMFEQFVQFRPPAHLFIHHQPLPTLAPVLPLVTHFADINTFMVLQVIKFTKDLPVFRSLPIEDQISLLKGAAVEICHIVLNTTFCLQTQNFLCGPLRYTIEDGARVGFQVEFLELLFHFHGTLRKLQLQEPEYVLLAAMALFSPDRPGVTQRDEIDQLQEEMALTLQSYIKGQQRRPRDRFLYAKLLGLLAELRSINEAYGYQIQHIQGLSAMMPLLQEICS
# T2: GST-CARβ ligand binding domain fusion protein (Mus musculus, UniProt O35627)
# T2 construct: encoding amino acids 86 to 358 was subcloned; made in house
# T2 sequence (O35627 86-358): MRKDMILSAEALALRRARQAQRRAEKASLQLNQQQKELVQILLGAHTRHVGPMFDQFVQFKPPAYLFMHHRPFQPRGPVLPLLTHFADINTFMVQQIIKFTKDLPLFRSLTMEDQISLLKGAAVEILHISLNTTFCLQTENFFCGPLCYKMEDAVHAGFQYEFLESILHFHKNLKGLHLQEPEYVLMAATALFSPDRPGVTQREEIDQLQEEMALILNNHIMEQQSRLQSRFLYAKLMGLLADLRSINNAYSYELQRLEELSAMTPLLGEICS
# T3: CARα (Homo sapiens, UniProt Q14994)
# T3 construct: expressed in transfected cells; host or cells: CV-1 cells
# T3 sequence (Q14994 1-348 isoform Q14994-2): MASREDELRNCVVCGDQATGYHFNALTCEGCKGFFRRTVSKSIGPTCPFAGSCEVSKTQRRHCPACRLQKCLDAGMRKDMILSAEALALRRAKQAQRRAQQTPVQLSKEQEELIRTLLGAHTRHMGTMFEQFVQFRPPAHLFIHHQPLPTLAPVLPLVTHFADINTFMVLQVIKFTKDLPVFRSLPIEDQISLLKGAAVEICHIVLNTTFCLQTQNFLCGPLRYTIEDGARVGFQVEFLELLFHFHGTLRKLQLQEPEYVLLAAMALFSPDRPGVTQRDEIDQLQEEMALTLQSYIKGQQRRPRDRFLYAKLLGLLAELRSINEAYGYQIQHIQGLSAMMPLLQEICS
# T4: CARβ (Mus musculus, UniProt O35627)
# T4 construct: expressed in transfected cells; host or cells: CV-1 cells
# T4 sequence (O35627 1-358): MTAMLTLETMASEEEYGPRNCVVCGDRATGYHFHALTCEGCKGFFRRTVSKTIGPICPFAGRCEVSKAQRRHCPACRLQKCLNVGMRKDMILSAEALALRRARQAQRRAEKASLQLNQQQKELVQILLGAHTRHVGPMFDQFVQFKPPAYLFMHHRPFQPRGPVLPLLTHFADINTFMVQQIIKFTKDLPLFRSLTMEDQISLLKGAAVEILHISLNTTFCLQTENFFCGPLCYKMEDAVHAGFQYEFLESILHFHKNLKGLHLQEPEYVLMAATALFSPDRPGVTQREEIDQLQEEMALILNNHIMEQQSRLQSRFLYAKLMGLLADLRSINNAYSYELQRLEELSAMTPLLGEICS
# T5: mouse CAR (Mus musculus, UniProt O35627)
# T5 sequence (O35627 1-358): T4 sequence (O35627 1-358)
# B1: rhodamine-ILRKLLQE (rhodamine-labeled peptide derived from the receptor binding domain of the coactivator SRC-1) (peptide)
# peptide: rhodamine-ILRKLLQE
# modifications: reading uncertain; also: printed as rhodamine-ILRKLLQE
# notes: Labeled 8-mer used as the fluorescence polarization sensor; also called sensor peptide
# Key:
# [1] = molecular target: T1, GST-CARα ligand binding domain fusion protein; experiment: Peptide sensor fluorescence polarization assay, GST-CARα ligand binding domain with rhodamine-[…] (SRC-1 peptide)
# Method: (§1) A portion of DNA encoding the ligand binding domain of CARα encoding amino acids 76 to 348 (GenBank Accession No. CAA83016) was subcloned into a glutathione S-transferase (GST) fusion protein expression vector (pGEX-2TK, Amersham-Pharmacia) to create a vector that encodes a fusion protein in which GST is fused to the amino terminus of the CAR ligand binding domain. The GST-CAR protein was expressed in E. coli and purified over a glutathione affinity column. The GST-CAR fusion protein was incubated with a rhodamine-labeled peptide derived from the receptor binding domain of the coactivator SRC-1, rhodamine-[…] (SEQ ID NO: 7) (see WO 99/27365). The fluorescence polarization was measured as described in WO 99/27365.
# (§2) Using the compounds set out in Table 1, a peptide sensor assay was carried out using the method of Example 3. Fusion proteins encoding the ligand binding domain of CARα (GST-CARα; see Example 3) and CARβ (GST-CARβ) were used in the assay. A portion of the DNA for the ligand binding domain of CARβ (GenBank Accession No. AF009327) encoding amino acids 86 to 358 was subcloned into a glutathione S-transferase (GST) fusion protein expression vector (pGEX-2TK, Amersham-Pharmacia) to create a vector that encodes a fusion protein in which GST is fused to the amino terminus of the CARβ ligand binding domain (GST-CARβ). The GST-CARβ was purified using glutathione affinity chromatography.
# (§3) The notation ND means not determined.
# [2] = molecular target: T2, GST-CARβ ligand binding domain fusion protein; experiment: Peptide sensor fluorescence polarization assay, GST-CARβ ligand binding domain; settings: half-maximal concentration of stimulation of peptide sensor assay signal
# Method: as §1, §2, §3
# [3] = molecular target: T3, CARα; assay type: cell-based
# [4] = molecular target: T4, CARβ; assay type: cell-based
# [5] = system: CAR; experiment: RARE-luciferase reporter gene assay in CV-1 cells with increasing CAR expression plasmid (Example 4); assay type: cell-based; settings: 10 μM compound, 24 h
# [6] = Total plasma cholesterol after TCPOBOP in CAR wild-type, heterozygous and knockout mice; assay type: in vivo; settings: single i.p. 3 mg/kg, four days after dosing
# [7] = Lipoprotein particle composition (LDL/VLDL) by electrophoresis of plasma, wild-type and CAR knockout mice; assay type: in vivo; settings: single i.p. 3 mg/kg, four days after dosing
# [8] = Plasma cholesterol, HDL cholesterol and triglycerides in wild-type C57B1/6 mice; assay type: in vivo; settings: single i.p. 3 mg/kg, four days after dosing
# [9] = molecular target: T5, mouse CAR; settings: Tzameli et al. (2000); read-out: EC50, upregulation of CAR-mediated transcription; cited from earlier work
# [10] = system: CYP2B; settings: mouse, in vivo, ip, cited from earlier work
# [11] = molecular target: GST-CARβ ligand binding domain fusion protein (mouse, UniProt P08515 1-218 = GST; O35627 86-358); experiment: fluorescence polarization peptide sensor assay, with small-molecule agonists
# [12] = half-maximal concentration of stimulation of peptide sensor assay signal, read-out: GST-CARα EC50
molecule,measurement,setting,value
COc1ccc(C2CC(c3ccc(Cl)cc3)=NN2c2ccccc2Cl)c(OC)c1 (centres unmarked) [Compound T0318784],EC50,[1]; [12],91.2 nM
same,EC50,[2],96.7 nM
same,"CMV-CARα, fold increase in normalized luciferase activity over DMSO control",[3],1.78
same,"CMV-CARβ, fold increase in normalized luciferase activity over DMSO control",[4],3.87
"CC(=O)[C@H]1CC[C@H]2[C@@H]3CC[C@@H]4CC(=O)CC[C@]4(C)[C@H]3CC[C@]12C [5β-pregnan-3,20-dione]",EC50,[1],2500 nM
same,Fluorescence polarization between sensor peptide and GST-CAR,[1],increased
same,Transcription of the luciferase reporter gene (normalized luciferase activity),[5],increased transcription
CCN(CC)c1ccc(C2C3=C(CC(C)(C)CC3=O)OC3=C2C(=O)CC(C)(C)C3)c(OCc2ccc(Cl)cc2Cl)c1 [Compound T0438248],EC50,[1]; [12],5.25 nM
same,EC50,[2],65.4 nM
same,"CMV-CARα, fold increase in normalized luciferase activity over DMSO control",[3],2.92
same,"CMV-CARβ, fold increase in normalized luciferase activity over DMSO control",[4],0.96
C[C@]12CC[C@@H](O)C[C@@H]1CC[C@@H]1[C@@H]2CC[C@]2(C)C=CC[C@@H]12 [5α-androst-16-en-3α-ol],IC50,"[1]; in the presence of 5 μM 5β-pregnan-3,20-dione, read-out: IC50, decrease of fluorescence polarization seen with 5β-pregnan-3,20-dione",530 nM
C[C@@]12CCC[C@H]1[C@@H]1CC[C@H]3C[C@H](O)CC[C@]3(C)[C@H]1CC2 [5α-androstane-3α-ol],Transcription of the luciferase reporter gene (normalized luciferase activity),[5],decreased
CCOC(=O)C(Nc1ccc(OCc2ccccc2)cc1)c1ccccc1 (centres unmarked) [Compound T0037566],EC50,[1]; [12],221 nM
same,EC50,[2],99.1 nM
same,"CMV-CARα, fold increase in normalized luciferase activity over DMSO control",[3],1.96
same,"CMV-CARβ, fold increase in normalized luciferase activity over DMSO control",[4],2.14
"Clc1cnc(Oc2ccc(Oc3ncc(Cl)cc3Cl)cc2)c(Cl)c1 [TCPOBOP, 1,4-bis[2-(3,5-dichloropyridyloxy)]benzene]",EC50,[2],60 nM
same,"Plasma cholesterol levels, CAR knockout mice",[6],no effect
same,"Reduction in total cholesterol, female heterozygous CAR mice (+/−)",[6],60%
same,"Total plasma cholesterol, mice with one functional CAR gene (+/−)",[6],decreased total plasma cholesterol
same,"Total plasma cholesterol, wild-type littermates (+/+)",[6],decreased total plasma cholesterol
same,"Plasma levels of LDL/VLDL, CAR deficient (knockout) mice",[7],unaffected
same,"Plasma levels of LDL/VLDL, wild-type mice",[7],significant reduction
same,Reduction in HDL,[8],40%
same,Reduction in total plasma cholesterol,[8],40%
same,Reduction in triglyceride levels,[8],15-30%
same,EC50,[9],20 nM
same,Duration of CYP2B expression induction,[10]; 3 mg/kg,over 20 weeks
same,Dose inducing half maximal expression of CYP2B,[10],66 µg/kg
Clc1ccc(CSCc2cc(Sc3c(Cl)cccc3Cl)nc(-c3ccccn3)n2)cc1 [Compound T0434523],EC50,[1]; [12],79.7 nM
same,EC50,[2],52.2 nM
same,"CMV-CARα, fold increase in normalized luciferase activity over DMSO control",[3],2.17
same,"CMV-CARβ, fold increase in normalized luciferase activity over DMSO control",[4],1.29
B1,binding result,[11],binds

# From patent US20020152479A1, “Car modulators: screening and treatment of hypercholesterolemia” (priority 2000, published 2002)
